Test results from publication PMC4912613, “A broad analysis of resistance development in the malaria parasite” (Nature Communications, 2016).
Marks after values point to notes of the source that are not given here.

Legend:
[1] = tested on: P. falciparum 3D7, Dd2, Dd2Δexo; experiment: In vitro evolution of compound-resistant lines (selection); assay type: cell-based, Plasmodium falciparum; settings: for Time Length to Obtain Mutants: in vitro selection; for # of Resistant Strains Generated: resistant cultures out of three independent cultures; for EC50 fold shifts observed: selected parasites vs selection parent
Excerpt: While we found an overall lack of pre-existing resistance, analysing the onset of resistance was critical, as compounds resulting in rapid resistance are not ideal for clinical development. We therefore sought to create drug-resistant parasites using a variety of different selection methods. We implemented either a high-dose method or a ramp-up/pulse method for our in vitro selections. Two of the 50 compounds—MMV028895 and MMV665824—were removed from the selection study during experimentation. […] Out of the remaining 48 compounds, resistant parasites were obtained for 23 (Supplementary Data 1). As each selection was performed in triplicate with three independent cultures, we succeeded in generating a total of 66 resistant cultures. Parasites resistant to MMV026596 were not obtained despite 100 days of selection, but the cultures acquired hypersensitivity to mefloquine with a 10-fold reduction in EC50 compared with its parental line, 3D7. For the remaining 24 compounds, acquisition of resistant parasites was unsuccessful despite numerous attempts over an extensive period of time.
Based on the compound speed of action and lab specialty, selections were conducted using a high-pressure intermittent selection method, a step-wise selection method, or a constant selection method. For high-pressure selections, ∼1–2 × 10^9 parasites were treated at a concentration of 3–10 × EC50 until parasites could not be seen by microscopy (4–10 days). Following treatment, compound pressure was removed and cultures were allowed to recover. Once healthy parasites were seen and parasitemia reached ∼2%, compound pressure was reinstated. For step-wise selections, ∼1 × 10^8 parasites were treated at a starting concentration resulting in a reduced growth rate of 50%. Cultures were examined daily by microscopy, increasing compound concentration in increments of 5–10% as needed to maintain a 50% reduced growth rate. Selections were carried out until cultures achieved a reproducible EC50 fold shift of >3 × . Finally, constant selections were conducted in a similar manner to the high-pressure intermittent method with the exception that compound pressure was never removed. Following successful selection, cultures were cloned out using a limiting dilution method as previously described. Selections were terminated after 200 days if resistance could not be obtained.

HepG2 = experiment: Hepatocyte toxicity; assay type: cell-based, human; settings: for Hepatocyte Toxicity: HepG2; for EC50 fold shift compared to asexual stage: Hepatocyte Toxicity: hepatocyte toxicity / 3D7 EC50; for Liver Stage / Hepatocyte Toxicity: toxicity fold shift for the liver stage (hepatocyte toxicity vs liver stage EC50)
Excerpt: (§1) As drugs that eliminate multiple stages of the parasite lifecycle will be critical components in global efforts to eliminate malaria, we were interested in knowing whether the compounds in our study had additional activities against either the liver and/or transmission stages of the parasite lifecycle. To determine this, we first evaluated the compounds in additional phenotypic assays. The first assay was a P. berghei hepatocyte invasion and development assay, which predicts causal prophylactic activity. Hepatocyte toxicity was additionally tested to identify false-positive activity in the liver stage due to host-cell toxicity. Assays were executed in duplicate using a 12-point EC50 curve at starting concentrations of 5 μM or 50 μM (Supplementary Table 1).
(§2) Liver-stage activity was determined by pretreating hepatic human cells (HepG2) for 2 h with compound in 1,536-well plates infected with freshly dissected P. berghei sporozoites. After 48 h of incubation, the viability of P. berghei exoerythrocytic forms was measured by luminescence reaction light output using BrightGlo (Promega). Varying levels of compound concentration were used (5 μM or 50 μM) due to the stock concentration supplied.

hsp90 (D88Y, parent Dd2) = experiment: Cross-resistance EC50 assay, hsp90; assay type: cell-based; settings: Plasmodium falciparum; SYBR green 72 hour assay; synchronized parasites; 384-well format; strain HSP90 (Dd2 parent)
Excerpt: (§3) To evaluate potential overlapping activity against known antimalarial drug targets, we performed dose-response studies with each compound against our assembled set of drug-resistant lines and their corresponding parents, in an asexual blood stage proliferation assay (Table 1). Comparisons were made to the drug-sensitive strain 3D7 when a parent was unavailable (TM90C2A, W2 and Dd2). As laboratories conducted EC50 assays with different strains and protocols, all comparisons were made between assays from the same laboratory and under the same assay conditions. Compounds displaying >5-fold EC50 shifts relative to the parent or sensitive strain were flagged as having potentially non-novel targets. Average fold shifts per strain ranged from 0.82 to 2.34, with a median of 1.23 indicating there was not common resistance to any one resistant clone. No resistance patterns were observed when classifying the compounds based on chemical structure, but this was not surprising given the diversity of compounds chosen. On the other hand, given that these confirmed compounds were derived from larger unconfirmed hit lists to which some filtration criteria may have been applied (for example, elimination of obvious dihydrofolate reductase inhibitors[32]), some[10][11][12][13] pre-existing bias may exist in the set. […]
(§4) Alternatively, a SYBR Green-based proliferation approach was used for the 72-h assay, as previously described. Briefly, a culture of either synchronized or asynchronous parasitized RBCs (0.3% parasitemia and 4% haematocrit) in screening medium (identical to supplemented medium above except no serum was added) was exposed to serial drug dilutions. Plates were incubated at 37 °C and gassed with 93% N2, 4% CO2 and 3% O2 for 72 h. Following incubation, 10 × SYBR Green I (Invitrogen; supplied in 10,000 × concentration) in lysis buffer ([…], 5 mM EDTA, 0.16% Saponin wt per vol and 1.6% Triton X vol per vol) was added to the wells and the plates were incubated overnight at room temperature before plate reading. EC50 assays were repeated three times, taking the average EC50 value from each assay set, and removing any outliers using a single iteration of Grubbs' test, eliminating values with z-scores above the critical z-value (α=0.05). The raw EC50 values for synchronized parasites assayed in a 384-well format are listed in Supplementary Data 4. The raw EC50 values for asynchronous parasites assayed in a 96 or 1536-well format are listed in Supplementary Data 5.
(§5) EC50 values for each strain were compared with those of the corresponding parent strain to determine fold-shift changes and identify resistance. To minimize the cause variance between assays, all comparisons were conducted between strains assayed under identical conditions. A one-way ANOVA followed by a Dunnet's post-test was conducted in GraphPad Prism to identify significant changes between the parent and resistant strain.

[2] = tested on: GNF449-R2 (PfATP4 I203L and P990R, parent Dd2); experiment: Cross-resistance EC50 assay, GNF449-R2; assay type: cell-based; settings: Plasmodium falciparum, SYBR green 72 hour assay, asynchronized parasites, 96-well or 1536-well format
Excerpt: as §3, §4, §5

[3] = tested on: DHODH (E182D, parent 3D7); experiment: Cross-resistance EC50 assay, DHODH; assay type: cell-based; settings: Plasmodium falciparum; SYBR green 72 hour assay; synchronized parasites; 384-well format; strain DHODH (3D7 parent)
Excerpt: as §3, §4, §5

[4] = tested on: ATQ-R4 (cytb M133I and L144S, parent 3D7); experiment: Cross-resistance EC50 assay, ATQ-R4; assay type: cell-based, Plasmodium falciparum; settings: for EC50: Plasmodium falciparum, 3D7, SYBR green 72 hour assay, asynchronized parasites, 96-well or 1536-well format, ATQ-R4
Excerpt: as §3, §4, §5

[5] = tested on: P. berghei exoerythrocytic forms; experiment: Liver-stage P. berghei hepatocyte invasion and development assay (luminescence, HepG2); assay type: cell-based, Plasmodium berghei; settings: for EC50: Plasmodium berghei, HepG2, 48 h, P. berghei sporozoites, read-out: Liver Stage EC50; for EC50 fold shift compared to asexual stage: Liver Stage EC50: liver stage EC50 / 3D7 EC50
Excerpt: as §1, §2

Row | Compound | Time Length to Obtain Mutants [1] | # of Resistant Strains Generated [1] | EC50 fold shifts observed [1] | Hepatocyte Toxicity (HepG2) [µM] | EC50 (hsp90 (D88Y, parent Dd2)) [nM] | EC50 [2] [µM] | EC50 [3] [nM] | EC50 [4] [µM] | EC50 [5] [nM] | EC50 fold shift compared to asexual stage: Hepatocyte Toxicity (HepG2) | Liver Stage / Hepatocyte Toxicity (HepG2) | EC50 fold shift compared to asexual stage: Liver Stage EC50 [5] | EC50 fold-shift, ATQ-R4 vs parent ([4]; resistance, parent 3D7)
1 | COc1cc2cc(C(=O)Nc3ccccc3)c(N)nc2cc1OC [MMV006767] | MODERATE (50-125 days) | 2/3* | 2-4x | > 50 | 3100 | 0.329 | 519 | 2.73 | > 50000 |  |  |  | 
2 | Cc1cc(Nc2ccc(OCc3ccccc3)cc2)nc2cc(O)ccc12 [MMV007181] | LONG (> 125 days) | 0/3 | no shift | 7.952 | 120 | 0.153 | 206 | 0.109 | 4790 | 22.98 | 1.66 | 13.83 | 
3 | Brc1ccc(Nc2nc3ccccc3nc2Nc2ccc(Br)cc2)cc1 [MMV007224] | LONG (> 125 days) | 3/3 | 1.7x | 1.868 | 247 | 0.717 | 606 | 0.766 | 514 | 8.41 | 3.63 | 2.32 | 
4 | Cc1ccc(Cn2c(N3CCC(C(=O)NCc4cccs4)CC3)nc3ccccc32)cc1 [MMV007564] | SHORT (0-50 days) | 3/3 | 7-12x | > 6.6 | 710 | 0.739 | 631 | 1.05 | 1510 | > 57 | > 21 | 2.60 | 
5 | Cc1c(C)n(Cc2ccc(F)cc2)c2ccc(C(=O)NCc3ccco3)cc12 [MMV008149] | SHORT (0-50 days) | 3/3 |  | > 5 | 191 | 1.36 | 401 | 3.88 | 882 | > 6.5 | > 5.6 | 1.15 | Statistically significant resistance
6 | OC(CNC1CCCCC1)Cn1c2ccccc2c2ccccc21 (centres unmarked) [MMV009063] | LONG (> 125 days) | 3/3 | 1.9-3.4x | > 5 | 286 | 0.457 | 715 | 0.668 | > 5000 | > 6.3 |  | > 6.3 | 
7 | CCN(CC)S(=O)(=O)c1ccc(-c2csc(Nc3ccc(C)c(C)c3)n2)cc1 [MMV009108] | SHORT (0-50 days) | 3/3 | 9x | > 5 | 512 | 1.01 | 973 | 2.44 | 4790 | > 5.3 | > 1 | 5.15 | 
8 | COC(=O)c1ccc(C2C3=C(O)CC(c4ccc(F)cc4)CC3=Nc3ccccc3N2C(=O)c2ccccc2)cc1 (centres unmarked) [MMV011438] | LONG (> 125 days) | 0/3 | no shift | > 50 | 127 | 0.552 | 556 | 0.379 | 621 | > 116 | > 80 | 1.44 | 
